From patent publication US8158589B2, “Peptides with the capacity to bind to transforming growth factor β1 (TGF-β1)” (Proyecto Biomedicine Cima, S.L., priority 2003, dated 2012)
Ends that are not written are not given here.

Assays:
[1] = biological target: T1, TGF-β1 (Homo sapiens, UniProt P01137); assay: Immunofluorescence of p-Smad2 translocation to the nucleus in rabbit corneal fibroblasts; format: cell-based; design: host or cells: added to a primary culture of rabbit corneal fibroblasts; conditions: TGF-β1 treated rabbit corneal fibroblasts
T1 sequence (P01137 279-390 limits assumed, species assumed): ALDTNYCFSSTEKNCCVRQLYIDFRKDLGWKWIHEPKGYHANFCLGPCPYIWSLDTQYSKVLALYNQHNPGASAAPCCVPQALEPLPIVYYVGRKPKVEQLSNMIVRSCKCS
Method: Therefore, Western Blot and immunofluorescence studies were conducted to determine, from cells extracted from the in vivo studies, the signaling pathway used by the peptides administered topically. It should be emphasized that said studies were conducted on fibroblasts from rabbit cornea and not from rat cornea. This decision was made due to the difficulty entailed in isolating fibroblasts from rodent eyes.

[2] = biological target: T1, TGF-β1; assay: Biopanning of phage-displayed 15-aa peptide library on biotinylated TGF-β1, number of colonies per sequence; format: binding; design: purchased Roche; host or cells: added to Mv-1-Lu (CCL-64) mink lung epithelial cells; conditions: clones carrying the sequence among 108 colonies after the last biopanning cycle; approximate indication of affinity for TGF-β1
Text: These libraries comprise a plurality of filamentous bacteriophages (M13), each one containing a peptide genetically fused to a protein of the virus envelope—in this case bound to the N-terminal end of envelope protein pIII (FIG. 1). […] In the phage libraries, the sequence encoding the peptide originates from a sequence degenerated in each one of the 15 positions with the 20 natural amino acids, thus allowing the presentation of 1.1×10^12 possible sequences of 15 amino acids in different phages. The physical ratio, 1:1, between the peptide sequence and the DNA encoding it within the bacteriophage allows the selection (from a broad range of variants) of those sequences that specifically bind to TGF-β1. This process is carried out via an in vitro selection protocol known as “biopanning”.
This technique involves incubating a set of phages representative (to practical effects) of all the 15-aa variants, in a plate blocked with streptavidin (10 μg/ml in 0.1 M NaHCO3, during 2 h at room temperature) to which biotinylated TGF-β1 is added. […] TGF-β1 contacts the peptides carried by the phages at a concentration of […]. After about 12 hours incubation, unbound phages are eliminated by 5 washings with PBS/Tween (phosphate buffered saline/polyoxyalkylene derivatives of sorbitan fatty acid esters). […] The eluted phages are then amplified by infection in a bacterial strain (E. coli). The process is repeated three cycles so that an enrichment in the content of phages which specifically bind, and with high affinity, to TGF-β1 is achieved (FIG. 3). […] Thus, the phages selected in each cycle show more and more affinity for TGF-β1. At the end of the process, phages which have been selected for their affinity for TGF-β1, are sequenced by using primers, after isolation by tetracycline resistance of the genetically modified phages after infecting E. coli cells. […] The number of times which a sequence is repeated, corresponding to a 15 amino acids peptide carried by each clone, from the total of sequenced colonies is an indication of the degree of relative affinity of said 15 amino acids sequence for TGF-β1.
The selection of clones, obtained from the “biopanning”, was carried out by selection of the bacterial colonies infected with the phages in the presence of a bacterial antibiotic; the bacteria resistance is acquired by a tetracycline resistance gene encoded by the phage genome. Thus, only those colonies infected with bacteriophages are able to grow. This means that each colony contains the genome of only one phage coding for only one peptide presented in its surface.
A total number of 108 colonies of phage-infected bacteria were obtained from the last selection cycle of “biopanning”. The sequence of the regions coding for the peptides present in the pIII protein was carried out using primers identified with SEQ ID NO: 23. This table also reflects the number of colonies (clones) carrying said sequences.
The number of clones (colonies) of each sequence gives an approximate indication of the degree of affinity of the peptide for TGF-β1, that is, the more colonies the more binding affinity.

translocation of p-Smad2 to the nucleus [1]: did not inhibit
No. colonies [2]: 3
Sequence: KRIWFIPRSSWYERA [SEQ ID NO: 17, KRIWFIPRSSWYERA]
